This passage reports GI50 and TGI results from PubChem BioAssay (NCI).

Molecules are shown by their SMILES. Several values for one entry are separate records, joined by “and”; a condition that tells them apart may be missing. Equal values may be shown once.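 48-hour exposure; five concentrations; linearly interpolated endpoints. GI50 is the concentration that inhibits growth by half. Definition used: TGI = concentration required for complete inhibition of growth.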 A value given as a limit tells only on which side of the number the result lay.

Holding throughout (assay): NCI anticancer screen, dose series, 48 h
Test [1] concerns HOP-92 NSCLC.
The subject of test [2] is NCI-H226 lung.
In test [3] the test system is KM12 colon.
In test [4] the test system is UO-31 renal.
Test [5] concerns MOLT-4 leukemia.
Test [6] has as its system 786-0 renal.
Test [7] deals with K-562 leukemia.
Test [8] concerns UACC-62 melanoma.
Test [9] deals with HCT-116 colon.
Test [10] relates to LOX IMVI melanoma.

Regarding `COc1cc(C(=O)c2cnc(-c3ccc4cc[nH]c4c3)[nH]2)cc(OC)c1OC`, the GI50 in test [1] was 0.632 µM; in test [2], 0.117 µM; in test [3], 0.0313 µM; in test [4] it was 0.153 µM; in test [5] it was 0.0597 µM; in test [6], 0.0419 µM. For the same molecule, the GI50 in test [7] was 0.0173 µM; in test [8], 0.0244 µM; in [9], 0.0332 µM; in test [10], 0.105 µM. The TGI came to 6.16 µM in test [1]; 9 µM in [2]; 2.16 µM in test [3]; 5.11 µM in test [4]; 15.6 µM in test [5]; 2.34 µM in test [6]. Further, the TGI turned out to be 8.74 µM in [7], 13.8 µM in test [8], 2.23 µM in test [9] and 1.98 µM in [10].
As to `N#Cc1ccc(C(=O)c2cnn(-c3ccc(F)cc3)c2N)cc1`, the GI50 in test [1], in [2], in test [3], in test [4], in [5] and in [6] was above 25 µM in each case. The GI50 in [7], in [8], in test [9] and in test [10] was above 25 µM in each case. The TGI in test [1], in test [2], in test [3], in test [4], in test [5] and in test [6] was above 25 µM in each case. Moreover, the TGI in test [7], in test [8], in test [9] and in [10] was above 25 µM each time.
In the case of `CCCCNP1(NCCCC)=NP(NCCCC)(NCCCC)=NP(NCCCC)(NCCCC)=NP(NCCCC)(NCCCC)=N1`, the GI50 in [1] was 0.0514 µM; in test [2], 1.72 µM; in test [3] it was 0.355 µM; in [4], 2.81 µM; in test [5] it was 0.491 µM; in [6], 1.34 µM. In addition, the GI50 in test [7] was 0.103 µM; in [8], 0.567 µM; in test [9], 0.209 µM; in test [10] it was 0.29 µM. The TGI came out at 0.917 µM in [1]; 7.91 µM in test [2]; 4.27 µM in test [3]; 14.4 µM in [4]; 3.99 µM in [5]; 5.26 µM in [6]. The TGI in [7] was determined as 3.83 µM; in test [8] it was 5.91 µM; in [9], 0.81 µM; in test [10] it was 2.11 µM.
Consider `O=C1/C=C/[C@@H](O)[C@@H]2C[C@@H](O)C[C@H]2/C=C/CCC[C@H](CCc2ccc(NC(=S)Nc3ccc4c(c3)C(=O)OC43c4ccc(O)cc4Oc4cc(O)ccc43)cc2)O1`, for which the GI50 is 0.932 µM in [1]; 0.287 µM in [2]; 0.322 µM in test [3]; 0.335 µM in test [4]; 0.432 µM in test [5]; 0.262 µM in test [6]. Also, the GI50 is 1.17 µM in [7], 0.397 µM in test [8], 0.523 µM in test [9] and 0.244 µM in test [10]. Also, the TGI in test [1] was above 27.6 µM; in test [2], 0.783 µM; in [3], 0.971 µM; in test [4], above 100 µM; in [5], 4.07 µM; in test [6] it was 0.771 µM. Besides, the TGI in [7] is above 100 µM; in test [8], 30.7 µM; in test [9], 4.95 µM.
Turning to `CN(C)c1ccc(/C=N/n2c(CCCCc3n[nH]c(=S)n3/N=C/c3ccc(N(C)C)cc3)n[nH]c2=S)cc1`, the GI50 is above 100 µM in [1]; above 100 µM in [2]; above 100 µM in [3]; above 100 µM in test [4]; above 100 µM in test [5]; 89.3 µM in test [6]. The GI50 in [7], in [8], in test [9] and in test [10] was above 100 µM in each case. Moreover, the TGI in [1], in test [2], in test [3], in test [4], in [5] and in [6] was above 100 µM each time. The TGI in test [7], in test [8], in test [9] and in test [10] was above 100 µM each time.
On to `O=C(Nc1cccc(-n2ccc3c(NC(=O)c4ccccc4)nccc32)c1)c1ccc(Cl)c(Cl)c1`, for which the GI50 is 0.13 µM in test [1]; 0.568 µM in test [2]; 0.0554 µM in [3]; 0.573 µM in test [4]; 0.634 µM in test [5]; 0.242 µM in test [6]. In addition, the GI50 is 0.0551 µM in test [7], 0.0535 µM in [8], 0.0989 µM in test [9] and 0.219 µM in [10]. For the same molecule, the TGI stood at 2.12 µM in test [1]; 3.65 µM in test [2]; 0.942 µM in test [3]; 2.18 µM in test [4]; 1.59 µM in test [6]; 1.63 µM in test [8]. In addition, the results for the TGI in [9] and in test [10] were 1.22 µM and 1.57 µM, respectively.
Regarding `CC[C@H](C)[C@H](NC(=O)[C@H]1CCCCN1C)C(=O)N(C)[C@H](C[C@@H](OC(C)=O)c1nc(C(=O)NC23C4C5C2C2C3C4C52C(=O)OC)cs1)C(C)C` (stereo partly specified), the GI50 in [1] is 5.44 µM; in [2] it was 0.0256 µM and 0.0222 µM; in [3] it was 0.00309 µM and 0.0025 µM; in test [4], 0.0358 µM and 0.0114 µM; in test [5] it was 0.00485 µM and 0.0025 µM; in test [6] it was 0.00359 µM and 0.0025 µM. Besides, the GI50 in [7] was 0.000952 µM and 0.0025 µM; in test [8], 0.0011 µM and 0.0025 µM; in [9], 0.00355 µM and 0.0025 µM; in [10] it was 0.00108 µM and 0.0025 µM. In addition, the TGI was above 25 µM in [1]; 1.15 µM in test [2]; above 25 µM in [3]; above 25 µM in test [4]; above 25 µM in [5]; above 25 µM in test [6]. In addition, the TGI in test [7] was above 25 µM; in test [8], 20.1 µM; in [9], 0.088 µM; in test [10], above 25 µM.
As for `O=C(C(=O)c1cccnc1)c1cccnc1`, the GI50 in [1], in test [2], in [3], in test [4], in [5] and in [6] was above 100 µM each time. For the same molecule, the GI50 in test [7], in test [8], in test [9] and in test [10] was above 100 µM throughout. The TGI in test [1], in test [2], in test [3], in [4], in [5] and in test [6] was above 100 µM in each case. Also, the TGI in [7], in test [8], in test [9] and in [10] was above 100 µM in each case.
As to `O=c1[nH][nH]c(=O)c2c(O)c(-c3ccccc3)ncc12`, the GI50 in test [1] was 30.4 µM and 50.1 µM; in test [2], 25.2 µM and 135 µM; in [3] it was 34.2 µM and 53.1 µM; in [4] it was 37.4 µM and 129 µM; in [5], 35 µM and 173 µM; in test [6], 19.4 µM and 26.7 µM. Also, the GI50 in test [7] was 219 µM; in test [8] it was 34.2 µM and 73.5 µM; in [9], 55 µM and 132 µM; in test [10] it was 38.9 µM and 123 µM. Moreover, the TGI in [1] was 91.2 µM and 277 µM; in [2], 52.6 µM and 463 µM; in [3] it was 482 µM; in test [4], 622 µM; in [5], above 1000 µM; in [6], 42.1 µM and 90.4 µM. In addition, the TGI is above 1000 µM in [7], 420 µM in test [8], 405 µM in test [9] and 442 µM in [10].
For `Cc1cnc(-c2ccc(-c3ccc(NC(=O)Nc4cccc(C(F)(F)F)c4)cc3F)c3c2C(=O)NC3)[nH]1`, the GI50 is 0.438 µM in test [1]; 0.933 µM in test [2]; below 0.01 µM in test [3]; 3 µM in test [4]; 1.37 µM in [5]; 16.8 µM in test [6]. For the same molecule, the GI50 in [7] was 1.43 µM; in [8], 9.61 µM; in test [9] it was 0.548 µM; in test [10] it was 0.357 µM. In addition, the TGI in test [1] was 28.6 µM; in [2] it was above 42.7 µM; in test [3], 16.2 µM; in test [4] it was above 50.5 µM; in [5], above 53.4 µM; in [6], above 51.8 µM. Moreover, the TGI in test [7] stood at 31.9 µM; in test [8] it was 35.5 µM; in test [9], 23.8 µM; in [10] it was 17.7 µM.
As for `Cc1cc2oc(=O)cc(OC/C=C3/CCC(=O)O3)c2cc1C`, the GI50 in test [1] is 1.65 µM; in [2] it was 10.8 µM; in test [3], 3.31 µM; in test [4], 1.49 µM; in [5], 2.25 µM; in test [6], 2.57 µM. Also, the GI50 in [7] is 8.23 µM; in test [8], 3.38 µM; in [9], 2.72 µM; in test [10], 1.82 µM. In addition, the TGI in test [1] was found to be 10.6 µM; in test [2] it was 51.1 µM; in test [3] it was 18 µM; in [4] it was 4.88 µM; in test [5], 13.4 µM; in test [6], 10.4 µM. The TGI was 34.1 µM in test [7], 13.6 µM in [8] and 4.59 µM in test [10].
As to `Cn1c2ccccc2c2c(=O)n(CCCC(=O)NCCc3cnc[nH]3)c3c(-c4ccccc4)nnn3c21`, the GI50 in test [1] was 1.35 µM; in test [2] it was above 50 µM; in [3], 8.16 µM; in test [4], 7.46 µM; in [5] it was 3.95 µM; in test [6], 2.19 µM. Also, the GI50 is 8.9 µM in test [7], 9.87 µM in [8], 5.95 µM in test [9] and 11.2 µM in [10]. Also, the TGI was 5.48 µM in test [1]; above 50 µM in [2]; 16.9 µM in [3]; 14.8 µM in test [4]; 21.5 µM in test [5]; 8.15 µM in [6]. For the same molecule, the TGI worked out at 27 µM in test [7], 17.6 µM in test [8], 13.8 µM in [9] and 22.9 µM in test [10].
For `Fc1ccc(-c2c(-c3ccncc3)[nH]c3cccnc23)cc1`, the GI50 in test [1] is 22.3 µM; in test [2] it was above 15.2 µM; in test [3], above 25 µM; in test [4] it was 3.2 µM; in test [5], above 25 µM; in test [6], above 25 µM. The GI50 in [7] is above 23.1 µM; in test [8], 12 µM; in test [9], above 25 µM; in test [10], above 21.7 µM. Further, the TGI in [1], in test [2], in test [3], in [4], in [5] and in test [6] was above 25 µM each time. The TGI in test [7], in test [8], in test [9] and in test [10] was above 25 µM throughout.
Consider `COc1ccc2c(c1)C(=O)/C(=C/c1cccc(OCC(=O)c3ccc([N+](=O)[O-])cc3)c1)CO2`, for which the GI50 in [1] was 3.16 µM; in test [2], 7.06 µM; in test [3], 1.56 µM; in [4], 1.47 µM; in [5] it was 3.03 µM; in test [6], 2 µM. Also, the GI50 is 1.96 µM in test [7], 2.82 µM in test [8], 1.33 µM in [9] and 1.47 µM in test [10]. Also, the TGI is 15.8 µM in [1]; 23.3 µM in test [2]; 3.26 µM in test [3]; 4.02 µM in test [4]; 17.9 µM in test [5]; 4.83 µM in [6]. In addition, the TGI is above 22.4 µM in test [7], 9.36 µM in test [8], 2.67 µM in test [9] and 2.88 µM in test [10].
Consider `O=[N+]([O-])c1cc(C(F)(F)F)cc2n[se]nc12`, for which the TGI in [1] is 5.1 µM; in test [2], 46.8 µM; in test [3], 20.3 µM; in test [4], 14.1 µM; in [5], above 45.2 µM; in test [6], 4.85 µM. Further, the TGI in test [7] was 5.14 µM; in test [8], 15 µM; in [9], 3.46 µM; in test [10] it was 14.4 µM.
